pIC50: −log10 of the molar value. Where two headings read alike, the source gives them in different places.
How the values were obtained:
[1] = molecular target: T1, human FLT3 protein (FLT3 (WT)) (Homo sapiens, UniProt P36888); assay: FLT3 inhibition test (FLT3 enzyme inhibition, time-resolved fluorescence of substrate peptide phosphorylation); type: biochemical; conditions: read-out: FLT3 (WT) enzyme inhibition activity
T1 construct: human FLT3 protein (intracellular region, 564 to 993 aa); GST; purchased Carna Biosciences; host or cells: baculovirus expression system
T1 sequence (P36888 564-993): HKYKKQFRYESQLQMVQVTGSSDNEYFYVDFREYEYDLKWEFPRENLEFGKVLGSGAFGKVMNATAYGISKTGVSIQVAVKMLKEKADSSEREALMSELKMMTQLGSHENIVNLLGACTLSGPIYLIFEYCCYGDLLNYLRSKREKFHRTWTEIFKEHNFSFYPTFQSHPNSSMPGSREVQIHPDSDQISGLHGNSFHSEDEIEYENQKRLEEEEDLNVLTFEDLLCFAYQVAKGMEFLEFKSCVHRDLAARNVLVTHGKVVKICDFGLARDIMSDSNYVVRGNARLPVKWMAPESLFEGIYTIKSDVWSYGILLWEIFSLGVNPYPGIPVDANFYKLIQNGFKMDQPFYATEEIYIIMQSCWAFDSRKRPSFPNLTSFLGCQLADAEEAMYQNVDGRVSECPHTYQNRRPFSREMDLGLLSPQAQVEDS
Description: The FLT3 inhibition test was performed for the compounds of the present invention by the method described below.
A reaction mixture in a volume of 9 μL containing the FLT3 protein and a test compound of a predetermined concentration (1.2 μg of FLT3, 100 mM HEPES, 10 mM MgCl2, 25 mM NaCl, 0.01% BSA, 1 mM DTT, pH 7.5) was left standing at 25° C. for 15 minutes. […] (Toray Industries), and 3 μL (final concentration 50 μM) of ATP (Sigma-Aldrich) were added to the reaction mixture, and the mixture was shaken for 2 minutes, and then further left standing at 25° C. for 30 minutes to allow the enzymatic reaction.

Molm-13 cells = assay: Leukemia cell proliferation inhibition test (ATPlite), Molm-13; type: cell-based; conditions: Homo sapiens, read-out: MOLM13 cell proliferation inhibition effect
Description: (§1) A leukemia cell proliferation inhibition test was performed for the compounds of the present invention by using the leukemia cell strains MV4-11 (ATCC Number, CRL-9591) and Molm-13 (DSMZ Number, ACC554).
(§2) The leukemia cell proliferation inhibition test was performed by the method described below.
(§3) For the purpose of measuring proliferation inhibition attained with a compound, the total cell count was quantified on the basis of the total cellular ATP concentration using the ATPlite (PerkinElmer) reagent utilizing firefly luciferase. The Molm-13 or MV4-11 cells were added to the RPMI medium containing penicillin and streptomycin (penn/strep) and 10% FBS at a density of 2×10^5 cells/ml, and 50 μL (10,000 cells) of the cell suspension was inoculated to each well of a 96-well plate (Corning).
(§4) A serially diluted solution of a compound or 0.1% DMSO (solvent control) in a volume of 50 μL was added to the cells, and then the cells were cultured for 72 hours under the standard cell proliferation conditions (37° C., 5% CO2) to allow proliferation of the cells. In order to measure the proliferation of the total cells, equal volume of the ATPlite reaction mixture was added to each well in accordance with the instructions attached to ATPlite, and then luminescence count of the well was measured (relative light unit, RLU).
(§5) The RLU signal observed with the DMSO solvent control after 72 hours of the culture was defined as a signal indicating 0% inhibition, and the GI50 value for the proliferation inhibition corresponds to a concentration of a compound that provides 50% inhibition based on the proliferation of the total cells contained in the DMSO solvent control. Each data point was obtained from samples in duplicate. The GI50 values were calculated by the non-linear regression fitting (Fit Model (205)) according to a sigmoid dose-reaction equation using the XLfit software.

MV4-11 cells = assay: Leukemia cell proliferation inhibition test (ATPlite), MV4-11; type: cell-based; conditions: Homo sapiens, read-out: MV4-11 cell proliferation inhibition effect
Description: as §1, §2, §3, §4, §5

[2] = GST-fused human FLT3 (564 to 993 aa), ATP 50 μM
[3] = MOLM-13, 72 h, Molm-13, 72 hours culture, ATPlite, GI50 per method
[4] = MV4-11, 72 h, MV4-11, 72 hours culture, ATPlite, GI50 per method

| Compound | pIC50 [1, 2] | pIC50 (Molm-13 cells; [3]) | pIC50 (MV4-11 cells; [4]) | pIC50 ([1]; FLT3 (WT)) | pIC50 (Molm-13 cells; MOLM-13, MOLM13 cell) | pIC50 (MV4-11 cells; MV4-11, MV4-11 cell) |
| --- | --- | --- | --- | --- | --- | --- |
| C[C@@H](C(=O)NCCCC#Cc1cnc(Nc2cccc(F)c2)nc1NCCc1cccs1)N(C)C(=O)/C=C/CN(C)C [Compound 10-9] | > 8.00 | 7.00 to 8.00 | 7.00 to 8.00 |  |  |  |
| CCCNc1nc(NC)ncc1C#C[C@@H]1CCC[C@H](NC(=O)[C@H](C)N(C)C(=O)/C=C/CN(C)C)C1 [Compound 21-35] |  |  |  | > 8.00 | 7.00 to 8.00 | 7.00 to 8.00 |
| COCCCNc1nc(Nc2ccc3[nH]ncc3c2)ncc1C#CCCCNC(=O)[C@H](C)N(C)C(=O)/C=C/CN(C)C [Compound 10-62] | > 8.00 | > 8.00 | > 8.00 |  |  |  |
| C[C@@H](C(=O)NCCCC#Cc1cnc(Nc2ccc(F)c(F)c2)nc1NC1CC1)N(C)C(=O)/C=C/CN(C)C [Compound 21-2] | > 8.00 | > 8.00 | > 8.00 |  |  |  |
| C=CC(=O)NCC(=O)Nc1ccccc1CNC(=O)c1cnc(NCCc2ccncc2)nc1NCCC [Compound 2-29] | 7.00 to 8.00 | 6.00 to 7.00 | 6.00 to 7.00 |  |  |  |
| COc1ccc(Nc2nc(Nc3cccc(F)c3)ncc2C#CCCCNC(=O)[C@H](C)N(C)C(=O)/C=C/CN(C)C)cc1 [Compound 10-3, (S,E)-4-(Dimethylamino)-N-(1-((5-(2-((3-fluorophenyl)amino)-4-((4-methoxyphenyl)amino)pyrimidin-5-yl)-4-pentyn-1-yl)amino)-1-oxopropan-2-yl)-N-methyl-2-butenamide] | > 8.00 | > 8.00 | > 8.00 |  |  |  |
| CCCNc1nc(Nc2ccc(C#N)cc2)ncc1C#CCCCNC(=O)[C@H](COC)NC(=O)/C=C/CN(C)C [Compound 7-44] | > 8.00 | > 8.00 | > 8.00 |  |  |  |
| CC(C)Oc1nc(Nc2ccc(C#N)cc2)ncc1C#C[C@@H]1CCC[C@H](NC(=O)[C@H](C)N(C)C(=O)/C=C/CN(C)C)C1 [Compound 21-22] | > 8.00 | > 8.00 | > 8.00 |  |  |  |
| COCCCNc1nc(Nc2ccnc(OC)c2)ncc1C#CCCCNC(=O)[C@@H]1CCCN1C(=O)/C=C/CN(C)C [Compound 9-32, (S,E)-1-(4-(Dimethylamino)-2-butenoyl)-N-(5-(4-((3-methoxypropyl)amino)-2-((methoxypyridin-4-yl)amino)pyrimidin-5-yl)-4-pentyn-1-yl)pyrrolidine-2-carboxamide] | > 8.00 | > 8.00 | > 8.00 |  |  |  |
| COc1ccc(Nc2nc(Nc3ccc(F)cc3)ncc2C#CCCCNC(=O)CN(C)C(=O)/C=C/CN(C)C)cn1 [Compound 10-20] | > 8.00 | > 8.00 | > 8.00 |  |  |  |
| CCCNc1nc(Nc2ccc(C#N)c(F)c2)ncc1C#CCCCNC(=O)[C@H](C)N(C)C(=O)/C=C/CN(C)C [Compound 9-25] | > 8.00 | > 8.00 | > 8.00 |  |  |  |
| CCCNc1nc(Nc2ccc3cnn(CCOC)c3c2)ncc1C#CCCCNC(=O)[C@@H]1CCCN1C(=O)/C=C/CN(C)C [Compound 22-33] |  |  |  | > 8.00 | > 8.00 | > 8.00 |
| CCCNc1nc(Nc2ccnc(F)c2)ncc1C#CC(C)(C)CCNC(=O)[C@H](C)N(C)C(=O)/C=C/CN(C)C [Compound 9-19] | > 8.00 | > 8.00 | > 8.00 |  |  |  |
| CCCNc1nc(Nc2ccc(C(N)=O)cc2)ncc1C(=O)Nc1cccc(NC(=O)[C@H](C)N(C)C(=O)/C=C/CNCC(F)(F)F)c1 [Compound 4-13] | > 8.00 | 7.00 to 8.00 | 7.00 to 8.00 |  |  |  |
| CCCNc1nc(Nc2ccc3[nH]nc(OC)c3c2)ncc1C#CCCCNC(=O)[C@H](C)N(C)C(=O)/C=C/CN(C)C [Compound 22-64] |  |  |  | > 8.00 | > 8.00 | > 8.00 |
| CNc1nc(Nc2ccc3c(c2)c(F)nn3C)ncc1C#CCCCNC(=O)[C@H](C)N(C)C(=O)/C=C/CN(C)C [Compound 21-49] |  |  |  | 7.00 to 8.00 | > 8.00 | > 8.00 |
| C[C@@H](C(=O)Nc1cccc(C#Cc2cnc(NCCc3ccncc3)nc2N2CCOCC2)c1)N(C)C(=O)/C=C/CN(C)C [Compound 12-13, (S,E)-4-(dimethylamino)-N-methyl-N-(1-((3-((4-morpholino-2-((2-(pyridin-4-yl)ethyl)amino)pyrimidin-5-yl)ethynyl)phenyl)amino)-1-oxopropan-2-yl)-2-butenamide] | > 8.00 | > 8.00 | > 8.00 |  |  |  |
| C[C@@H](C(=O)NCCCC#Cc1cnc(Nc2cncc(F)c2)nc1NC1CC1)N(C)C(=O)/C=C/CN(C)C [Compound 9-22] | > 8.00 | 7.00 to 8.00 | > 8.00 |  |  |  |
| CCCNc1nc(Nc2ccnc(F)c2)ncc1C#C[C@H]1C[C@@H](NC(=O)[C@H](C)N(C)C(=O)/C=C/CN(C)C)C1 (relative stereo) [Compound 14-4, (E)-4-(Dimethylamino)-N—((S)-1-(((1S*,3R*)-3-((2-((2-fluoropyridin-4-yl)amino)-4-(propylamino)pyrimidin-5-yl)ethynyl)cyclobutyl)amino)-1-oxopropan-2-yl)-N-methyl-2-butenamide] | > 8.00 | > 8.00 | > 8.00 |  |  |  |
| CC(C)Nc1nc(Nc2ccc(C#N)cc2)ncc1C#C[C@@H]1CCC[C@H](NC(=O)[C@H](C)N(C)C(=O)/C=C/CN(C)C)C1 [Compound 21-31] |  |  |  | > 8.00 | > 8.00 | > 8.00 |
| CCCNc1nc(Nc2cccc(F)c2)ncc1C#CCCCNC(=O)[C@@H]1CCN1C(=O)/C=C/CN(C)C [Compound 7-51] | > 8.00 | > 8.00 | > 8.00 |  |  |  |
| CCNc1nc(Nc2ccc3[nH]ncc3c2)ncc1C#CCCCNC(=O)[C@H](C)N(C)C(=O)/C=C/CN(C)C [Compound 10-61] | > 8.00 | > 8.00 | > 8.00 |  |  |  |
| C[C@@H](C(=O)N[C@H]1C[C@@H](C#Cc2cnc(Nc3cccc(C#N)c3)nc2NC2CC2)C1)N(C)C(=O)/C=C/CN(C)C [Compound 13-20, (E)-N—((S)-1-(((1S,3R)-3-((2-((3-Cyanophenyl)amino)-4-(cyclopropylamino)pyrimidin-5-yl)ethynyl)cyclobutyl)amino)-1-oxopropan-2-yl)-4-(dimethylamino)-N-methyl-2-butenamide] | > 8.00 | > 8.00 | > 8.00 |  |  |  |
| CCCNc1nc(Nc2ccc3c(cnn3CCOC)c2)ncc1C#CCCCNC(=O)[C@H](C)N(C)C(=O)/C=C/CN(C)C [Compound 22-10] |  |  |  | > 8.00 | > 8.00 | > 8.00 |
| CCCNc1nc(Nc2ccc(C(N)=O)cc2)ncc1C(=O)Nc1cccc(NC(=O)[C@H](C)N(C)C(=O)/C=C/CN2CC(O)C2)c1 [Compound 4-5] | > 8.00 | > 8.00 | > 8.00 |  |  |  |
| C[C@@H](C(=O)N[C@H]1CCC[C@@H](C#Cc2cnc(Nc3ccc(F)cc3)nc2NC2CC2)C1)N(C)C(=O)/C=C/CN(C)C [Compound 21-46] |  |  |  | > 8.00 | > 8.00 | > 8.00 |
| CCCNc1nc(Nc2nnc(C)s2)ncc1C#CCCCNC(=O)[C@H](C)N(C)C(=O)/C=C/CN(C)C [Compound 9-40] | 7.00 to 8.00 | 7.00 to 8.00 | 7.00 to 8.00 |  |  |  |

— patent US9145415B2, “Nitrogen-containing heterocyclic compound or salt thereof” (FUJIFILM Corporation, priority 2012, dated 2015)
